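Assay format: 96-well plates, 48-hour exposure. The concentration for 50% growth inhibition is given as GI50.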 The source made the active and inactive calls. Cut-off read from the data, not from the text of the source: active = GI50 up to about 1.1 µM and inactive = higher. Residues, ends and D or L forms follow the SMILES beside them. *: point of attachment. Fmoc = O=C(OCC1c2ccccc2-c2ccccc21)*; Boc = CC(C)(C)OC(=O)*
What was measured:
Assay in all cases: NCI tumour cell line growth inhibition, 48 h
SK-MEL-28 = test system: SK-MEL-28
NCI-H23 = test system: NCI-H23
Hs-578T = test system: Hs-578T
SNB-19 = test system: SNB-19
SN12C = test system: SN12C
EKVX = test system: EKVX
COLO 205 = test system: COLO 205
UACC-257 = test system: UACC-257
MDA-N = test system: MDA-N
HL-60 = test system: HL-60
SNB-75 = test system: SNB-75
SF-539 = test system: SF-539
IGROV-1 = test system: IGROV-1
HT-29 = test system: HT-29
MDA-MB-435 = test system: MDA-MB-435
HOP-92 = test system: HOP-92
SK-MEL-5 = test system: SK-MEL-5
Malme-3M = test system: Malme-3M
A549 = test system: A549
UO-31 = test system: UO-31

SMILES	GI50 (SK-MEL-28)	GI50 (NCI-H23)	GI50 (Hs-578T)	GI50 (SNB-19)	GI50 (SN12C)	GI50 (EKVX)	GI50 (COLO 205)	GI50 (UACC-257)	GI50 (MDA-N)	GI50 (HL-60)	GI50 (SNB-75)	GI50 (SF-539)	GI50 (IGROV-1)	GI50 (HT-29)	GI50 (MDA-MB-435)	GI50 (HOP-92)	GI50 (SK-MEL-5)	GI50 (Malme-3M)	GI50 (A549)	GI50 (UO-31)
O=C(O)CSCc1cccc2ccccc12	> 100 µM (inactive)	> 100 µM (inactive)	> 100 µM (inactive)	> 100 µM (inactive)	> 100 µM (inactive)	19.4 µM (inactive)	> 100 µM (inactive)	62.1 µM (inactive)	> 100 µM (inactive)	> 100 µM (inactive)	> 100 µM (inactive)	> 100 µM (inactive)	> 100 µM (inactive)	> 100 µM (inactive)	> 100 µM (inactive)	> 100 µM (inactive)	> 100 µM (inactive)	> 100 µM (inactive)	> 100 µM (inactive)	> 100 µM (inactive)
c1ccc(-c2cc(-c3cc(-c4ccccn4)[nH]n3)n[nH]2)nc1	> 100 µM (inactive)	95.5 µM (inactive)	> 100 µM (inactive)	> 100 µM (inactive)	27.6 µM (inactive)	25.4 µM (inactive)	> 100 µM (inactive)	> 100 µM (inactive)	77.3 µM (inactive)	84.3 µM (inactive)	69.8 µM (inactive)	> 100 µM (inactive)	> 100 µM (inactive)	38.8 µM (inactive)	> 100 µM (inactive)	77.8 µM (inactive)	> 100 µM (inactive)	> 100 µM (inactive)	75.2 µM (inactive)	22.6 µM (inactive)
C=C1CC[C@@H]2[C@](C)(COC(=O)CCC(=O)O)CCC[C@@]2(C)[C@@H]1CCC1=CC(=O)OC1	> 100 µM (inactive)	> 100 µM (inactive)	> 100 µM (inactive)	> 100 µM (inactive)	> 100 µM (inactive)	> 100 µM (inactive)	> 100 µM (inactive)	> 100 µM (inactive)	> 100 µM (inactive)	> 100 µM (inactive)	> 100 µM (inactive)	> 100 µM (inactive)	> 100 µM (inactive)	> 100 µM (inactive)	> 100 µM (inactive)	> 100 µM (inactive)	42.9 µM (inactive)	> 100 µM (inactive)	> 100 µM (inactive)	> 100 µM (inactive)
COC(CN(C=O)[C@@H](c1ccc(Cl)cc1)c1cc2ccccc2o1)OC	18.5 µM (inactive)	18.5 µM (inactive)	14 µM (inactive)	19.4 µM (inactive)	17.2 µM (inactive)	15.8 µM (inactive)	17.6 µM (inactive)	14 µM (inactive)	17.1 µM (inactive)	20.5 µM (inactive)	22.9 µM (inactive)	17.9 µM (inactive)	14.8 µM (inactive)	17.1 µM (inactive)	18.5 µM (inactive)	16.7 µM (inactive)	15.5 µM (inactive)	0.397 µM (active)	21 µM (inactive)	16.5 µM (inactive)
CC(NNC(=O)c1ccncc1)c1ccc(Cl)c(Cl)c1 (stereo not given)	> 100 µM (inactive)	57.7 µM (inactive)	86.9 µM (inactive)	> 100 µM (inactive)	> 100 µM (inactive)	> 100 µM (inactive)	> 100 µM (inactive)	> 100 µM (inactive)	95.3 µM (inactive)	34.8 µM (inactive)	> 100 µM (inactive)	> 100 µM (inactive)	> 100 µM (inactive)	> 100 µM (inactive)	> 100 µM (inactive)	> 100 µM (inactive)	> 100 µM (inactive)	> 100 µM (inactive)	> 100 µM (inactive)	54.6 µM (inactive)
CC1CCC2c3c([nH]c4ccccc34)C3C(=O)N(C4CCCCC4)C(=O)C3C2C1 (stereo not given)	15.1 µM (inactive)	23.7 µM (inactive)	13 µM (inactive)	16.4 µM (inactive)	22.9 µM (inactive)	14.8 µM (inactive)	> 100 µM (inactive)	46.3 µM (inactive)	33.3 µM (inactive)	> 100 µM (inactive)	2.78 µM (inactive)	21.9 µM (inactive)	17.2 µM (inactive)	> 100 µM (inactive)	55.3 µM (inactive)	21 µM (inactive)	17.9 µM (inactive)	29.3 µM (inactive)	19.1 µM (inactive)	19.8 µM (inactive)
O=C1CC(c2ccccc2Cl)C2(C(=O)NC(=S)NC2=O)C(c2ccccc2Cl)C1 (stereo not given)	49 µM (inactive)	16.7 µM (inactive)	0.465 µM (active)	13.2 µM (inactive)	25.9 µM (inactive)	37.6 µM (inactive)	31.3 µM (inactive)	13.6 µM (inactive)	26.8 µM (inactive)	36.5 µM (inactive)	69.8 µM (inactive)	58.7 µM (inactive)	25.9 µM (inactive)	74 µM (inactive)	14.3 µM (inactive)	0.284 µM (active)	23.9 µM (inactive)	1.56 µM (inactive)	20.8 µM (inactive)	46.5 µM (inactive)
CCN(C)c1nc(N(C)CC)c2nc(N(C)CC)nc(N(C)CC)c2n1	> 100 µM (inactive)	> 100 µM (inactive)	> 100 µM (inactive)	> 100 µM (inactive)	> 100 µM (inactive)	> 100 µM (inactive)	> 100 µM (inactive)	> 100 µM (inactive)	> 100 µM (inactive)	> 100 µM (inactive)	> 100 µM (inactive)	> 100 µM (inactive)	> 100 µM (inactive)	> 100 µM (inactive)	> 100 µM (inactive)	> 100 µM (inactive)	> 100 µM (inactive)	> 100 µM (inactive)	> 100 µM (inactive)	> 100 µM (inactive)
C=C1CC(C)(COc2ccc3c(C)c(Cl)c(=O)oc3c2)OC1=O (stereo not given)	2.42 µM (inactive)	1.21 µM (inactive)	3.11 µM (inactive)	12.9 µM (inactive)	5.07 µM (inactive)	5.9 µM (inactive)	0.729 µM (active)	1.15 µM (inactive)	0.762 µM (active)	0.12 µM (active)	2.02 µM (inactive)	3.61 µM (inactive)	1.76 µM (inactive)	0.984 µM (active)	2.97 µM (inactive)	1.06 µM (active)	1.43 µM (inactive)	1.9 µM (inactive)	11.1 µM (inactive)	3.34 µM (inactive)
CNC1C(OC2C(OC3C(O)C(O)C(O)C(O)C3O)OC(C)C2(O)CO)OC(CO)C(O)C1O.N=C(N)N.NC(=O)O (stereo not given)	> 100 µM (inactive)	> 100 µM (inactive)	> 100 µM (inactive)	> 100 µM (inactive)	> 100 µM (inactive)	> 100 µM (inactive)	> 100 µM (inactive)	> 100 µM (inactive)	> 100 µM (inactive)	> 100 µM (inactive)	> 100 µM (inactive)	> 100 µM (inactive)	> 100 µM (inactive)	> 100 µM (inactive)	> 100 µM (inactive)	> 100 µM (inactive)	> 100 µM (inactive)	> 100 µM (inactive)	> 100 µM (inactive)	> 100 µM (inactive)
CC(C)(C)OC(=O)NCCCCC(NC(=O)C(Cc1c[nH]c2ccccc12)NC(=O)OCC1c2ccccc2-c2ccccc21)C(=O)N1CCCC1C(=O)NCC(N)=O (stereo not given) (Fmoc-WK(Boc)PG-NH2; configuration not given here)	> 100 µM (inactive)	> 100 µM (inactive)	> 100 µM (inactive)	> 100 µM (inactive)	> 100 µM (inactive)	> 100 µM (inactive)	> 100 µM (inactive)	> 100 µM (inactive)	> 100 µM (inactive)	> 100 µM (inactive)	> 100 µM (inactive)	> 100 µM (inactive)	> 100 µM (inactive)	> 100 µM (inactive)	> 100 µM (inactive)	> 100 µM (inactive)	> 100 µM (inactive)	> 100 µM (inactive)	> 100 µM (inactive)	> 100 µM (inactive)
